We go through 21 compounds from patent US12240838B2, “Inhibiting agents for Bruton's tyrosine kinase” (BIOGEN MA INC., priority 2019, dated 2025).

Structures are written as SMILES.

Assay [1] has as its target T1, BTK (Homo sapiens (Human), UniProt Q06187). Put plainly: In Vitro BTK Kinase Assay: BTK-POLYGAT-LS ASSAY. The class given is biochemical. The conditions noted are these: ATP 10 μM, polyGAT 100 nM, BTK 0.25 nM, 30 minutes. As for the experimental part:
The purpose of the BTK in vitro assay is to determine compound potency against BTK through the measurement of IC50. […] The BTK kinase reaction was done in a black 96 well plate (costar 3694). For a typical assay, a 24 μL aliquot of a ATP/peptide master mix (final concentration; ATP 10 μM, polyGAT 100 nM) in kinase buffer (10 mM Tris-HCl pH 7.5, 10 mM MgCl2, 200 μM […], 5 mM DTT, 0.01% Triton X-100, and 0.2 mg/ml casein) is added to each well. Next, […] of a 4-fold, 40× compound titration in 100% DMSO solvent is added, followed by adding 15 μL of BTK enzyme mix in 1× kinase buffer (with a final concentration of 0.25 nM). The assay is incubated for 30 minutes before being stopped with […] of a 50 mM EDTA solution. Aliquots (5 μL) of the kinase reaction are transferred to a low volume white 384 well plate (Coming 3674), and […] of a 2× detection buffer (Invitrogen PV3574, with 4 nM Tb-PY20 antibody, Invitrogen PV3552) is added. The plate is covered and incubated for 45 minutes at room temperature. Time resolved fluorescence (TRF) on Molecular Devices M5 (332 nm excitation; 488 nm emission; 518 nm fluorescein emission) is measured.

Assay [2] deals with T1, BTK. Put plainly: In Vitro PD Assay in Human Whole Blood (pBTK assay). It is filed as cell-based. The conditions noted are these: 37° C. for 30 min, 50% inhibition of ECL signal. The method, then: Human heparinized venous blood was purchased from Bioreclamation, Inc. or SeraCare Life Sciences and shipped overnight. Whole blood was aliquoted into 96-well plate and “spiked” with serial dilutions of test compound in DMSO or with DMSO without drug. The final concentration of DMSO in all wells was 0.1%. The plate was incubated at 37° C. for 30 min. Lysis buffer containing protease and phosphatase inhibitors was added to the drug-containing samples and one of the DMSO-only samples (+PPi, high control), while lysis buffer containing protease inhibitors was added to the other DMSO-only samples (−PPi, low control). All of the lysed whole blood samples were subjected to the total BTK capture and phosphotyrosine detection method described in US20160311802, incorporated herein by reference.

T1 sequence (Q06187 whole entry): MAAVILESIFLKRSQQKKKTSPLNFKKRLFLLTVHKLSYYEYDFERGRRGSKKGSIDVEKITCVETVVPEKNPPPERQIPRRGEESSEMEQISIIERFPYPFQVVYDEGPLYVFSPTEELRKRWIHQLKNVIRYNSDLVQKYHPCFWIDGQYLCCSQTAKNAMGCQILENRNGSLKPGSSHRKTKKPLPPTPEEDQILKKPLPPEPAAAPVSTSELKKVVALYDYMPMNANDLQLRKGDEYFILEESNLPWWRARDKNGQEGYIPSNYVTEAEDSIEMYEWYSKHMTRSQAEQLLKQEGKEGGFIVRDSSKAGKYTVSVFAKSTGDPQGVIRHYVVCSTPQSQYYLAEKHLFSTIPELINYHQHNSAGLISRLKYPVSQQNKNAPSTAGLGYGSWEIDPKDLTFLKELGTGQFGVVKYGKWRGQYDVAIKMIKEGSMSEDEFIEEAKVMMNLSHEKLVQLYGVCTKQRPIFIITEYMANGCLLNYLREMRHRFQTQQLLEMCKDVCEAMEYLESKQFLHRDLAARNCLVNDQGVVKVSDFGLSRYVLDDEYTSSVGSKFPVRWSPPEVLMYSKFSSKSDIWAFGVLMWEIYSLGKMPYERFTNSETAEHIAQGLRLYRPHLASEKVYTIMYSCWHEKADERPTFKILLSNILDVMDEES

Regarding `Cc1cc(-c2ccnc(NC(=O)[C@@H]3C[C@@H]3F)c2)ccc1CNC(=O)c1noc(C(C)(C)C)n1` (single isomer, unassigned) [Compound 3], the IC50 in assay [1] was at most 1 nM; in assay [2], at most 100 nM.

Regarding `Cc1cc(-c2ccnc(NC(=O)[C@H]3C[C@H]3F)c2)ccc1CNC(=O)c1noc(C(C)(C)C)n1` (single isomer, unassigned) [Compound 4], the IC50 in assay [1] was at most 1 nM.

As to `Cc1cc(-c2ccnc(NC(=O)[C@H]3C[C@@H]3C)c2)ccc1CNC(=O)c1noc(C(C)(C)C)n1` [Compound 5, 5-(tert-butyl)-N-(2-methyl-4-(2-((1S,2S)-2-methylcyclopropane-1-carboxamido)pyridin-4-yl)benzyl)-1,2,4-oxadiazole-3-carboxamide], the IC50 was at most 1 nM in assay [1] and at most 100 nM in assay [2].

Regarding `Cc1cc(-c2ccnc(NC(=O)[C@@H]3C[C@H]3C)c2)ccc1CNC(=O)c1noc(C(C)(C)C)n1` [Compound 6, 5-(tert-butyl)-N-(2-methyl-4-(2-((1R,2R)-2-methylcyclopropane-1-carboxamido)pyridin-4-yl)benzyl)-1,2,4-oxadiazole-3-carboxamide], the IC50 in assay [1] was at most 1 nM; in assay [2], at most 100 nM.

Consider `Cc1cc(-c2cc(NC(=O)C3CC3)ncc2Cl)ccc1CNC(=O)c1noc(C(C)(C)C)n1` [Compound 7, 5-(tert-butyl)-N-(4-(5-chloro-2-(cyclopropanecarboxamido)pyridin-4-yl)-2-methylbenzyl)-1,2,4-oxadiazole-3-carboxamide], for which the IC50 in assay [1] was at most 1 nM; in assay [2] it was 100 to 500 nM.

In turn, `Cc1cc(-c2ccnc(NC(=O)C3C4COCC43)c2)ccc1CNC(=O)c1noc(C(C)(C)C)n1` (stereo not shown) [Compound 23] returned an IC50 in assay [1] of 1 to 10 nM.

As for `CC(C)(C)c1nc(C(=O)N[C@@H]2CCCCc3cc(-c4ccnc(NC(=O)C5CC5)c4)c(F)cc32)no1` [Compound 24, (R)-5-(tert-butyl)-N-(2-(2-(cyclopropanecarboxamido)pyridin-4-yl)-3-fluoro-6,7,8,9-tetrahydro-5H-benzo[7]annulen-5-yl)-1,2,4-oxadiazole-3-carboxamide], the IC50 in assay [1] is at most 1 nM.

Turning to `Cc1cc(-c2ccnc(NC(=O)C3CC3C(F)(F)F)c2)ccc1CNC(=O)c1noc(C(C)(C)C)n1` (stereo not shown) [Compound 25, 5-(tert-butyl)-N-(2-methyl-4-(2-(2-(trifluoromethyl)cyclopropane-1-carboxamido)pyridin-4-yl)benzyl)-1,2,4-oxadiazole-3-carboxamide], the concentration for half-maximal inhibition (IC50) in assay [1] is 1 to 10 nM.

In the case of `CC(C)(C)c1noc(C(=O)NCc2ccc(-c3ccnc(NC(=O)C4CC4)c3)c(F)c2C(F)F)n1` [Compound 27, 3-(tert-butyl)-N-(4-(2-(cyclopropanecarboxamido)pyridin-4-yl)-2-(difluoromethyl)-3-fluorobenzyl)-1,2,4-oxadiazole-5-carboxamide], the IC50 in assay [1] was at most 1 nM.

As to `Cc1cc(-c2ccnc(NC(=O)C3CC3)c2)ccc1CNC(=O)c1nn(C(C)(C)C)cc1F` [Compound 28, 1-(tert-butyl)-N-(4-(2-(cyclopropanecarboxamido)pyridin-4-yl)-2-methylbenzyl)-4-fluoro-1H-pyrazole-3-carboxamide], the 50% inhibitory concentration (IC50) in assay [1] is at most 1 nM.

The compound `CC(C)(C)c1nc(C(=O)N[C@@H]2CCCCc3c2ccc(-c2ccnc(NC(=O)C4CC4)c2)c3F)no1` [Compound 40, (R)-5-(tert-butyl)-N-(2-(2-(cyclopropanecarboxamido)pyridin-4-yl)-1-fluoro-6,7,8,9-tetrahydro-5H-benzo[7]annulen-5-yl)-1,2,4-oxadiazole-3-carboxamide] came in with a half-maximal inhibitory concentration (IC50) in assay [1] of at most 1 nM.

As for `CC(C)(C)c1noc(C(=O)N[C@@H]2CCCCc3cc(-c4ccnc(NC(=O)[C@@H]5C[C@@H]5C#N)c4)ccc32)n1` [Compound 50, 3-(tert-butyl)-N-((R)-2-(2-((1R,2S)-2-cyanocyclopropane-1-carboxamido)pyridin-4-yl)-6,7,8,9-tetrahydro-5H-benzo[7]annulen-5-yl)-1,2,4-oxadiazole-5-carboxamide], the IC50 in assay [1] was at most 1 nM.

`CC(C)(C)c1nc(C(=O)NCc2cc(F)c(-c3ccnc(NC(=O)C4CC4)c3)cc2C(F)(F)F)no1` [Compound 62, 5-(tert-butyl)-N-(4-(2-(cyclopropanecarboxamido)pyridin-4-yl)-5-fluoro-2-(trifluoromethyl)benzyl)-1,2,4-oxadiazole-3-carboxamide]: the concentration for half-maximal inhibition (IC50) in assay [2] was in the range of 500 to 10000 nM.

With `Cc1c([C@@H](C)NC(=O)c2nc(C(C)(C)C)no2)ccc(-c2ccnc(NC(=O)C3CC3)c2)c1F` [Compound 66, (R)-3-(tert-butyl)-N-(1-(4-(2-(cyclopropanecarboxamido)pyridin-4-yl)-3-fluoro-2-methylphenyl)ethyl)-1,2,4-oxadiazole-5-carboxamide], the IC50 in assay [1] is at most 1 nM.

Turning to `C[C@@H](NC(=O)c1noc(C(C)(C)C)n1)c1ccc(-c2ccnc(NC(=O)C3CC3)c2)c(F)c1Cl` [Compound 74, (R)-5-(tert-butyl)-N-(1-(2-chloro-4-(2-(cyclopropanecarboxamido)pyridin-4-yl)-3-fluorophenyl)ethyl)-1,2,4-oxadiazole-3-carboxamide], the IC50 in assay [1] was at most 1 nM.

On to `C[C@@H](NC(=O)c1nc(C(C)(C)C)no1)c1ccc(-c2ccnc(NC(=O)C3CC3)c2)c(F)c1Cl` [Compound 75, (R)-3-(tert-butyl)-N-(1-(2-chloro-4-(2-(cyclopropanecarboxamido)pyridin-4-yl)-3-fluorophenyl)ethyl)-1,2,4-oxadiazole-5-carboxamide], for which the 50% inhibitory concentration (IC50) in assay [1] was at most 1 nM.

The compound `Cc1cc(-c2ccnc(NC(=O)C3CC3)c2)c(F)cc1[C@@H](C)NC(=O)c1noc(C(C)(C)C)n1` [Compound 85, (R)-5-(tert-butyl)-N-(1-(4-(2-(cyclopropanecarboxamido)pyridin-4-yl)-5-fluoro-2-methylphenyl)ethyl)-1,2,4-oxadiazole-3-carboxamide] had a half-inhibitory concentration (IC50) in assay [1] of at most 1 nM.

`CC(C)(C)c1nc(C(=O)NCc2ccc(-c3ccnc(NC(=O)C4CC4)c3)c(F)c2C(F)(F)F)no1` [Compound 86, 5-(tert-butyl)-N-(4-(2-(cyclopropanecarboxamido)pyridin-4-yl)-3-fluoro-2-(trifluoromethyl)benzyl)-1,2,4-oxadiazole-3-carboxamide] returned a half-maximal inhibitory concentration (IC50) in assay [1] of at most 1 nM.

As to `COc1cc(-c2ccnc(NC(=O)C3CC3)c2)ccc1CNC(=O)c1noc(C(C)(C)C)n1` [Compound 87, 5-(tert-butyl)-N-(4-(2-(cyclopropanecarboxamido)pyridin-4-yl)-2-methoxybenzyl)-1,2,4-oxadiazole-3-carboxamide], in assay [1], the half-maximal inhibitory concentration (IC50) is at most 1 nM.

`CC(C)(C)c1nc(C(=O)NCc2ccc(-c3ccnc(NC(=O)C4CC4)c3)cc2C2CCC2)no1` [Compound 88, 5-(tert-butyl)-N-(2-cyclobutyl-4-(2-(cyclopropanecarboxamido)pyridin-4-yl)benzyl)-1,2,4-oxadiazole-3-carboxamide] came in with an IC50 in assay [1] of at most 1 nM.

As to `Cc1cc(-c2ccnc(NC(=O)C3CC3)c2)ccc1CNC(=O)c1cn(C(C)(C)C)cn1` [Compound 95, 1-(tert-butyl)-N-(4-(2-(cyclopropanecarboxamido)pyridin-4-yl)-2-methylbenzyl)-1H-imidazole-4-carboxamide], the IC50 in assay [1] was in the range of 10 to 1000 nM.

For orientation: IC50 means the concentration that inhibits the measured activity by half. Read a high IC50 as weaker potency in that assay.
